This is an account of results in paper PMC3242765, “Inhibitors of Alphavirus Entry and Replication Identified with a Stable Chikungunya Replicon Cell Line and Virus-Based Assays” (PLoS ONE, 2011).

For one assay, the system named is CHIKV replicon. As to the kind of experiment: microbe, parasite or virus in culture. The class given is cell-based, Chikungunya virus (CHIKV).

Each structure is given as a SMILES string. Counter-ions that a name gives are not always drawn.

Take `CC(=O)N(c1onc(C)c1C)S(=O)(=O)c1ccc(N)cc1` [Acetylsulfisoxazole]: the “CHIKV replicon % left” value in the assay with CHIKV replicon is given as 82.1%. In the assay on SFV-Rluc, the “SFV replication % left (surviving fraction, remaining percentage of SFV replication)” value came out at 40.4%.
For the molecule `C=CCC1(CC=C)C(=O)NC(=O)NC1=O` [Allobarbital], in the assay on CHIKV replicon, the “CHIKV replicon % left” value is listed as 121.1%. The “SFV replication % left (surviving fraction, remaining percentage of SFV replication)” value in the assay with SFV-Rluc stood at 45.6%.
Turning to `O=c1cc(-c2ccccc2)oc2c1ccc1ccccc12` [Alphanaphthoflavone], the “CHIKV replicon % left” value with CHIKV replicon was determined as 30.8%. In the assay with SFV-Rluc, the “SFV replication % left (surviving fraction, remaining percentage of SFV replication)” value was found to be 14.6%.
Taken in the same sequence, the figures for `CCC(CN(C)C)(CN(C)C)OC(=O)c1ccccc1.Cl` [Amydricaine hydrochloride] were 74.3% and 43.4%.
Regarding `c1ccc(CN(CC2=NCCN2)c2ccccc2)cc1` [Antazoline hydrochloride], the “CHIKV replicon % left” value with CHIKV replicon came to 100.5%. Also, in the assay on SFV-Rluc, the “SFV replication % left (surviving fraction, remaining percentage of SFV replication)” value was determined as 38.7%.
For `Cc1cc(=O)n(-c2ccccc2)n1C` [Antipyrine], in that order: 102.6% and 60.1%.
As for `COC(=O)C1=CCCN(C)C1` [Arecoline hydrobromide], the “CHIKV replicon % left” value with CHIKV replicon amounted to 101.1%. In the assay with SFV-Rluc, the “SFV replication % left (surviving fraction, remaining percentage of SFV replication)” value was 83.6%.
Regarding `C[N+]1(C)[C@@H]2CC[C@H]1C[C@@H](OC(=O)C(CO)c1ccccc1)C2` (stereo partly drawn) [Atropine methyl nitrate], the “CHIKV replicon % left” value in the assay with CHIKV replicon is recorded as 61.7%. In the assay with SFV-Rluc, the “SFV replication % left (surviving fraction, remaining percentage of SFV replication)” value is reported as 46.8%.
`CCCCNCC(O)c1ccc(O)cc1` (stereo not drawn) [Bamethan]: in the assay on CHIKV replicon, the “CHIKV replicon % left” value is 96.9%. Also, in the assay on SFV-Rluc, the “SFV replication % left (surviving fraction, remaining percentage of SFV replication)” value is given as 67.1%.
Take `CCC1(CC)C(=O)NC(=O)NC1=O` [Barbital]: the “CHIKV replicon % left” value in the assay on CHIKV replicon was determined as 106.1%. Also, the “SFV replication % left (surviving fraction, remaining percentage of SFV replication)” value with SFV-Rluc turned out to be 64.7%.
As to `O=C1CC(=O)NC(=O)N1` [Barbituric acid], the “CHIKV replicon % left” value in the assay on CHIKV replicon was 88.4%. The “SFV replication % left (surviving fraction, remaining percentage of SFV replication)” value in the assay with SFV-Rluc turned out to be 48.8%.
Regarding `CCOC(=O)c1ccc(N)cc1` [Benzocaine], the “CHIKV replicon % left” value in the assay on CHIKV replicon was determined as 85.4%. The “SFV replication % left (surviving fraction, remaining percentage of SFV replication)” value with SFV-Rluc was found to be 43.4%.
`O=C(O)c1ccccc1` [Benzoic acid]: in the assay with CHIKV replicon, the “CHIKV replicon % left” value amounted to 99.1%. In addition, the “SFV replication % left (surviving fraction, remaining percentage of SFV replication)” value in the assay with SFV-Rluc is 71.6%.
`COc1c2ccoc2cc2oc(=O)ccc12` [Bergapten, 5-Methoxypsoralen]: in the assay on CHIKV replicon, the “CHIKV replicon % left” value was determined as 100.5%. In addition, in the assay on SFV-Rluc, the “SFV replication % left (surviving fraction, remaining percentage of SFV replication)” value is on record as 46.8%.
For `CN(Cc1cc(Br)cc(Br)c1N)C1CCCCC1` [Bromhexine hydrochloride], in that order: 82.8% and 64.8%.
For `CCCCNC(=O)c1ccc(Cl)cc1O` [Buclosamide], in that order: 100.6% and 49.6%.
`CC(C)(C)NCC(O)COc1ccccc1C#N` (stereo not drawn) [Bunitrolol]: in the assay with CHIKV replicon, the “CHIKV replicon % left” value was 58.9%. In addition, in the assay with SFV-Rluc, the “SFV replication % left (surviving fraction, remaining percentage of SFV replication)” value is 40.7%.
As for `CS(=O)(=O)OCCCCOS(C)(=O)=O` [Busulfan], the “CHIKV replicon % left” value in the assay on CHIKV replicon was 100.5%. In the assay with SFV-Rluc, the “SFV replication % left (surviving fraction, remaining percentage of SFV replication)” value is 51.8%.
In the case of `CCCCC1(CC)C(=O)NC(=O)NC1=O` [Butethal], in the assay on CHIKV replicon, the “CHIKV replicon % left” value is given as 78.2%. Also, the “SFV replication % left (surviving fraction, remaining percentage of SFV replication)” value in the assay with SFV-Rluc came to 45.2%.
For `CCC(C)NCC(O)c1ccc2c(c1)CCCC2` (stereo not drawn) [Butidrine], in that order: 89.2% and 73.1%.
Taken in the same sequence, the figures for `CCCCOC(=O)c1ccc(N)cc1` [Butyl 4-Aminobenzoate] were 102.7% and 76.6%.
For the molecule `COc1ccc(O)c(C(C)(C)C)c1` [Butylated hydroxyanisole], in the assay with CHIKV replicon, the “CHIKV replicon % left” value is 79.9%. In addition, in the assay on SFV-Rluc, the “SFV replication % left (surviving fraction, remaining percentage of SFV replication)” value was determined as 66.8%.
For `Cc1cc(C(C)(C)C)c(O)c(C(C)(C)C)c1` [Butylated hydroxytoluene], the “CHIKV replicon % left” value in the assay with CHIKV replicon was 47.8%. For the same molecule, in the assay on SFV-Rluc, the “SFV replication % left (surviving fraction, remaining percentage of SFV replication)” value worked out at 72.6%.
For `O=C(O)/C=C/c1ccc(O)c(O)c1` [Caffeic acid], in that order: 85.2% and 98.7%.
For `CCCCNc1ccc(C(=O)OCCN(C)C)cc1` [Cainopan, p-Butylaminobenzoyldimethylaminoethanol], in that order: 82.2% and 63.8%.
Taken in the same sequence, the figures for `CC(C)(CO)[C@@H](O)C(=O)NCCC(=O)O` [Calcium pantothenate] were 89.1% and 67.9%.
In the case of `CC[C@@]1(O)C(=O)OCc2c1cc1n(c2=O)Cc2cc3ccccc3nc2-1` [Camptothecin], in the assay on CHIKV replicon, the “CHIKV replicon % left” value was determined as 100.4%. Further, the “SFV replication % left (surviving fraction, remaining percentage of SFV replication)” value in the assay with SFV-Rluc came out at 87.7%.
As for `NC(=O)N1c2ccccc2C=Cc2ccccc21` [Carbamazepine], in the assay with CHIKV replicon, the “CHIKV replicon % left” value is given as 100.2%. The “SFV replication % left (surviving fraction, remaining percentage of SFV replication)” value in the assay with SFV-Rluc is on record as 57.2%.
On to `CC(C)(C)NCC(O)COc1cccc2c1CCC(=O)N2` (stereo not drawn) [Carteolol hydrochloride], for which the “CHIKV replicon % left” value with CHIKV replicon was 78.1%. For the same molecule, the “SFV replication % left (surviving fraction, remaining percentage of SFV replication)” value with SFV-Rluc is recorded as 67.2%.
In the case of `Oc1ccccc1O` [Catechol], the “CHIKV replicon % left” value in the assay with CHIKV replicon is 77.7%. In the assay on SFV-Rluc, the “SFV replication % left (surviving fraction, remaining percentage of SFV replication)” value came out at 58.4%.
Consider `CCCCCCCCCCCCCCCC[N+](C)(C)C` [Cetrimonium bromide], for which the “CHIKV replicon % left” value with CHIKV replicon was determined as 80.5%. Moreover, the “SFV replication % left (surviving fraction, remaining percentage of SFV replication)” value in the assay with SFV-Rluc was 75.0%.
Take `O=C(N[C@H](CO)[C@H](O)c1ccc([N+](=O)[O-])cc1)C(Cl)Cl` [Chloramphenicol]: the “CHIKV replicon % left” value in the assay on CHIKV replicon was 53.2%. Moreover, the “SFV replication % left (surviving fraction, remaining percentage of SFV replication)” value in the assay with SFV-Rluc came to 73.8%.
Take `CNC1=Nc2ccc(Cl)cc2C(c2ccccc2)=[N+]([O-])C1` [Chlordiazepoxide]: in the assay on CHIKV replicon, the “CHIKV replicon % left” value came to 100.6%. Besides, the “SFV replication % left (surviving fraction, remaining percentage of SFV replication)” value in the assay with SFV-Rluc is 54.3%.
With `CC(C)(O)C(Cl)(Cl)Cl` [Chlorobutanol], the “CHIKV replicon % left” value in the assay with CHIKV replicon amounted to 95.1%. Also, the “SFV replication % left (surviving fraction, remaining percentage of SFV replication)” value with SFV-Rluc is 84.2%.
For `NS(=O)(=O)c1cc2c(cc1Cl)N=CNS2(=O)=O` [Chlorothiazide], in the assay with CHIKV replicon, the “CHIKV replicon % left” value is recorded as 82.1%. Further, the “SFV replication % left (surviving fraction, remaining percentage of SFV replication)” value with SFV-Rluc is reported as 90.3%.
Taken in the same sequence, the figures for `CN(C)CC/C=C1/c2ccccc2Sc2ccc(Cl)cc21` [Chlorprothixene hydrochloride] were 78.2% and 90.3%.
For `O=C(O)c1cc(-c2ccccc2)nc2ccccc12` [Cinchophen], in that order: 51.2% and 65.1%.
In the case of `Cl.Cl.OCCN1CCN(CC/C=C2/c3ccccc3Sc3ccc(C(F)(F)F)cc32)CC1` [Cis(Z)-Flupentixol dihydrochloride], the “CHIKV replicon % left” value in the assay on CHIKV replicon is listed as 102.7%. Besides, the “SFV replication % left (surviving fraction, remaining percentage of SFV replication)” value with SFV-Rluc is listed as 92.6%.
Consider `COc1cc(OC)c2ccc(=O)oc2c1` [Citropten], for which the “CHIKV replicon % left” value in the assay on CHIKV replicon worked out at 106.4%. Further, the “SFV replication % left (surviving fraction, remaining percentage of SFV replication)” value in the assay on SFV-Rluc is recorded as 67.4%.
Consider `Oc1c(I)cc(Cl)c2cccnc12` [Clioquinol], for which the “CHIKV replicon % left” value with CHIKV replicon worked out at 32.7%. In addition, the “SFV replication % left (surviving fraction, remaining percentage of SFV replication)” value in the assay on SFV-Rluc was 71.9%.
Regarding `Cl.Cl.OCCN1CCN(CCC=C2c3ccccc3Sc3ccc(Cl)cc32)CC1` [Clopenthixol dihydrochloride], in the assay on CHIKV replicon, the “CHIKV replicon % left” value stood at 40.1%. The “SFV replication % left (surviving fraction, remaining percentage of SFV replication)” value with SFV-Rluc is recorded as 55.2%.
`CC(C)NCC(O)c1ccccc1Cl.Cl.O` (stereo not drawn) [Clorprenaline hydrochloride]: the “CHIKV replicon % left” value with CHIKV replicon is 102.2%. Moreover, in the assay on SFV-Rluc, the “SFV replication % left (surviving fraction, remaining percentage of SFV replication)” value turned out to be 63.7%.
Regarding `CCCNc1ccc(C(=O)OCC(O)CN(C)C)cc1` (stereo not drawn) [Cornecaine], the “CHIKV replicon % left” value with CHIKV replicon came out at 80.5%. For the same molecule, the “SFV replication % left (surviving fraction, remaining percentage of SFV replication)” value in the assay on SFV-Rluc is listed as 77.3%.
`CCN(CC)c1ccc2cc(-c3nc4ccccc4[nH]3)c(=O)oc2c1` [Coumarin 7]: the “CHIKV replicon % left” value with CHIKV replicon was 51.8%. Also, the “SFV replication % left (surviving fraction, remaining percentage of SFV replication)” value in the assay on SFV-Rluc is 37.3%.
For `Cc1cc(=O)oc2c3c4c(cc12)CCCN4CCC3` [Coumarin 102], the “CHIKV replicon % left” value with CHIKV replicon is 65.4%. Besides, the “SFV replication % left (surviving fraction, remaining percentage of SFV replication)” value with SFV-Rluc was found to be 34.6%.
As for `O=c1oc2c3c4c(cc2c2c1CCC2)CCCN4CCC3` [Coumarin 106], the “CHIKV replicon % left” value in the assay with CHIKV replicon is recorded as 91.5%. Besides, the “SFV replication % left (surviving fraction, remaining percentage of SFV replication)” value with SFV-Rluc came to 82.1%.
For `O=c1cc(C(F)(F)F)c2cc3c4c(c2o1)CCCN4CCC3` [Coumarin 153], in that order: 96.1% and 52.6%.
On to `O=c1ccc2ccccc2o1` [Coumarin], for which the “CHIKV replicon % left” value in the assay with CHIKV replicon worked out at 85.0%. Further, in the assay on SFV-Rluc, the “SFV replication % left (surviving fraction, remaining percentage of SFV replication)” value is 68.8%.
Regarding `Oc1cc(O)c2cc(O)c(-c3ccc(O)c(O)c3)[o+]c2c1` [Cyanidin chloride], the “CHIKV replicon % left” value in the assay with CHIKV replicon was 54.8%. Also, in the assay on SFV-Rluc, the “SFV replication % left (surviving fraction, remaining percentage of SFV replication)” value came to 24.5%.
As for `O=S(=O)(O)NC1CCCCC1` [Cyclamic acid], the “CHIKV replicon % left” value with CHIKV replicon is 107.5%. For the same molecule, the “SFV replication % left (surviving fraction, remaining percentage of SFV replication)” value with SFV-Rluc came out at 74.9%.
On to `OCc1ccccc1O[C@@H]1O[C@H](CO)[C@@H](O)[C@H](O)[C@H]1O` [D(-)-Salicin], for which the “CHIKV replicon % left” value in the assay on CHIKV replicon is 99.4%. Also, the “SFV replication % left (surviving fraction, remaining percentage of SFV replication)” value in the assay on SFV-Rluc is given as 104.4%.
